{"source": "patent US8148354B2", "about": "“Use of 20(S)-protopanaxadiol in manufacture of antidepressants” (priority 2006, dated 2012)", "key": {"[1]": {"tested_on": "monoamine neurotransmitter and its metabolite in cerebral tissues", "test": "Measure of cerebral neurotransmitters in rats wearing shackles (HPLC-ECD)", "format": "in vivo, SD rats", "details": "shackle model rats, brain", "from_the_text": "(i) Modeling Method: Sixty male SD rats, 8-9 weeks old and weighing 200-250 g, were randomly divided into 6 groups and subjected to gavage once a day as shown in Table 9. On the first day, individually housed rats were fitted with a cylindrical plastic shackle-like device composed of two pieces of red organic glass 0.2 cm-thick and 4 cm in diameter. The device could be adjusted according to the size of the animals and was worn for 21 days.\nPreparation of Cerebral Tissues: Rats were Sacrificed by Femoral Arterial Exsanguination, and whole brains were weighed after the cerebellum was excised and homogenized in 950 μl (0.1 mol/L) perchloric acid (containing 0.05% Na2EDTA) and 50 μl (2 μg/ml) of DHBA. This material was then centrifuged at 11,000 rpm/for 10 minutes and, 10 μl of the supernatant were taken for testing. Results were as follows: The amount of each neurotransmitter was shown as the wet weight (ng/g) in cerebral tissues.\nChromatographic conditions: Chromatography was performed with a Shimadzu HPLC system, which was equipped with an L-BCD-6A electrochemical detector (detection range: 0.1-500 nA), a chromatographic column of 5 μm, 200 mm×4.6 mm ID glassy carbon electrode; the flow rate employed was 1.2 ml/min, the operating voltage was +0.75 V; and oxygenation was maintained. An NP2000 workstation was used for data recording and processing (Intelligence Information Institute of Zhejiang University). The potential difference between the working electrode and reference electrode was 0.75 V. The mobile phase, prepared with deionized water and degassed, consisted of 0.1 mmol/L citric acid-0.1 mmol/L sodium acetate buffer at pH4.37 with 10% ethanol. A mixture of a B81.2 mmol/L ion pair and 1.3 mmol/L Di-n-butylamine was used after degasification of the G4 glass filler.\nPreparation of standard solutions: The stock solutions were 2 μg/ml for DHBA and 20 μg/ml for NE, DA, DOPAC, 5-HT, 5-HIAA and HAV. Standard solution 6 was prepared by mixing 20 μl each of NE, DA, DOPAC, 5-HT, 5-HIAA and HAV, then 80 μl of 0.1 mM mmol/LHCLO4 were added. Standard solution 7 (100 ng/ml) was prepared by mixing 50 μl of standard solution 6, 50 μl DHBA and 900 μl 0.1 mmol/LHCLO4. Standard solution 7 (10 μl) was used for HPLC."}, "[2]": {"tested_on": "mice in the forced swimming test", "test": "Forced swimming test using mice", "format": "in vivo, Kunming mice", "details": "mean ± SD", "description": "Fifty male Kunming mice, 9-10 weeks old and weighing 22-24 g, were randomly divided by weight into 5 groups and administered by gavage a single dose of one of the drugs listed in Table 6. Sixty minutes later, the mice were placed in individual beakers (2500 ml, 20 cm×14 cm in diameter), which had previously been filled with water (25° C.) up to 10 cm from the bottom. The duration of immobility in the last 4 minutes in the 6-min swimming test was recorded (the term immobility indicates no movement except for respiration). T-test was used for statistical analysis.\nFifty male Kunming mice, 8-9 weeks old and weighing 18-22 g, were randomly divided by weight into 5 groups and subjected to gavage once a day for 10 consecutive days as shown in Table 7. Sixty minutes after the last dose, the mice were individually placed in beakers (2500 ml, 20 cm×14 cm in diameter), which had previously been filled with water (25° C.) up to 10 cm from the bottom. The cumulative time of immobility in the last 4 minutes of a total swimming time of 6 minutes was recorded (the term immobility indicates no movement except for respiration). T-test was used for statistical analysis."}, "[3]": {"tested_on": "Reserpine-Induced Akinesia in Mice", "test": "Inhibition of akinesia induced by reserpine", "format": "in vivo, Kunming mice", "details": "reserpine 2.5 mg/kg i.p., 10 mice per group", "description": "Fifty male Kunming mice, 8-9 weeks old and weighing 18-22 g, were randomly divided by weight into 5 groups, and administered by gavage a single dose of one of the drugs listed in Table 5 for 10 consecutive days. Sixty minutes after the last dose, mice were given a reserpine injection (2.5 mg/kg) delivered i. p. Sixty minutes later, mice were individually placed on the center of a round filter paper 7.5 cm in diameter. After a 30-sec observation, the number of animals that were still on the filter paper was recorded. Fisher's exact test was used for statistical analysis."}, "5-HT Re-uptake": {"tested_on": "5-HT Re-uptake", "test": "5-HT re-uptake test ([14C]-5-HT, hypothalamus homogenate)", "format": "biochemical, SD rats", "description": "Eight male SD rats were decapitated. The hypothalamuses were rapidly removed, weighed and homogenized in a 9-fold volume of 0.32 mol/L ice-cold sucrose solution, and centrifuged at a rate of 3420 rpm for 10 minutes at 0-4° C. […] Ten tubes were prepared for each group and all tubes were incubated at 37° C. for 5 minutes. […] CO2 chamber for 5 minutes, followed by centrifugation at a rate of 7,480 rpm for 10 minutes. The supernatant of the solution was put into a scintillation vial for counting after adding 10 ml scintillation fluid (scintillation was performed 3 times). The re-uptake of serotonin was calculated by the difference in DMP at 37° C. and 0° C."}}, "note": "Marks after values point to notes of the source that are not given here.", "data": [{"smiles": "CNCCC(Oc1ccc(C(F)(F)F)cc1)c1ccccc1", "note": "(stereo not drawn) [Fluoxetine, reference compound]", "values": [{"measurement": "Concentration of monoamine neurotransmitter and its metabolite: 5-HIAA", "setting": "[1]; 16 mg/kg × 21 i.g.", "value": 8.42, "unit": "ng/g nerve tissues"}, {"measurement": "Concentration of monoamine neurotransmitter and its metabolite: 5-HT", "setting": "[1]; 16 mg/kg × 21 i.g.", "value": "136.88 ± ng/g nerve tissues"}, {"measurement": "Concentration of monoamine neurotransmitter and its metabolite: DA", "setting": "[1]; 16 mg/kg × 21 i.g.", "value": 406.97, "unit": "ng/g nerve tissues"}, {"measurement": "Concentration of monoamine neurotransmitter and its metabolite: DOPAC", "setting": "[1]; 16 mg/kg × 21 i.g.", "value": 21.53, "unit": "ng/g nerve tissues"}, {"measurement": "Concentration of monoamine neurotransmitter and its metabolite: HAV", "setting": "[1]; 16 mg/kg × 21 i.g.", "value": "62.17 ± ng/g nerve tissues"}, {"measurement": "Concentration of monoamine neurotransmitter and its metabolite: NE", "setting": "[1]; 16 mg/kg × 21 i.g.", "value": "13.67 ± ng/g nerve tissues"}, {"measurement": "Cumulative immobility within 4 minutes", "setting": "[2]; multiple dose 18 mg/kg × 10 i.g.", "value": "81.50 ± 36.77", "unit": "s"}, {"measurement": "Cumulative immobility within 6 minutes", "setting": "[2]; single dose 18 mg/kg × 1 i.g.", "value": "86.20 ± 32.56", "unit": "s"}, {"measurement": "Number of animals Remaining on the filter paper for 30 seconds", "setting": "[3]; 18 mg/kg × 10 i.g.", "value": "3**"}]}, {"smiles": "CC(C)=CCC[C@](C)(O)[C@H]1CC[C@]2(C)[C@@H]1[C@H](O)C[C@@H]1[C@@]3(C)CC[C@H](O)C(C)(C)[C@@H]3CC[C@]12C", "note": "[20(S)-protopanaxadiol]", "values": [{"measurement": "Concentration of monoamine neurotransmitter and its metabolite: 5-HIAA", "setting": "[1]; 3.33 mg/kg × 21 i.g.", "value": 8.78, "unit": "ng/g nerve tissues"}, {"measurement": "Concentration of monoamine neurotransmitter and its metabolite: DA", "setting": "[1]; 3.33 mg/kg × 21 i.g.", "value": 375.96, "unit": "ng/g nerve tissues"}, {"measurement": "Concentration of monoamine neurotransmitter and its metabolite: DOPAC", "setting": "[1]; 3.33 mg/kg × 21 i.g.", "value": 21.57, "unit": "ng/g nerve tissues"}, {"measurement": "Concentration of monoamine neurotransmitter and its metabolite: 5-HIAA", "setting": "[1]; 6.67 mg/kg × 21 i.g.", "value": 9.02, "unit": "ng/g nerve tissues"}, {"measurement": "Concentration of monoamine neurotransmitter and its metabolite: 5-HT", "setting": "[1]; 6.67 mg/kg × 21 i.g.", "value": 113.18, "unit": "ng/g nerve tissues"}, {"measurement": "Concentration of monoamine neurotransmitter and its metabolite: DA", "setting": "[1]; 6.67 mg/kg × 21 i.g.", "value": 401.67, "unit": "ng/g nerve tissues"}, {"measurement": "Concentration of monoamine neurotransmitter and its metabolite: DOPAC", "setting": "[1]; 6.67 mg/kg × 21 i.g.", "value": 22.17, "unit": "ng/g nerve tissues"}, {"measurement": "Concentration of monoamine neurotransmitter and its metabolite: HAV", "setting": "[1]; 6.67 mg/kg × 21 i.g.", "value": 56.37, "unit": "ng/g nerve tissues"}, {"measurement": "Concentration of monoamine neurotransmitter and its metabolite: 5-HIAA", "setting": "[1]; 13.33 mg/kg × 21 i.g.", "value": 8.62, "unit": "ng/g nerve tissues"}, {"measurement": "Concentration of monoamine neurotransmitter and its metabolite: 5-HT", "setting": "[1]; 13.33 mg/kg × 21 i.g.", "value": 102.81, "unit": "ng/g nerve tissues"}, {"measurement": "Concentration of monoamine neurotransmitter and its metabolite: DA", "setting": "[1]; 13.33 mg/kg × 21 i.g.", "value": 394.41, "unit": "ng/g nerve tissues"}, {"measurement": "Concentration of monoamine neurotransmitter and its metabolite: DOPAC", "setting": "[1]; 13.33 mg/kg × 21 i.g.", "value": 20.68, "unit": "ng/g nerve tissues"}, {"measurement": "Concentration of monoamine neurotransmitter and its metabolite: HAV", "setting": "[1]; 13.33 mg/kg × 21 i.g.", "value": 53.19, "unit": "ng/g nerve tissues"}, {"measurement": "Concentration of monoamine neurotransmitter and its metabolite: NE", "setting": "[1]; 13.33 mg/kg × 21 i.g.", "value": 11.04, "unit": "ng/g nerve tissues"}, {"measurement": "Amount of re-uptake", "setting": "5-HT Re-uptake; concentration 0.01 μg/ml", "value": "4377.8 ± 479.7", "unit": "dmp"}, {"measurement": "Inhibitory rate", "setting": "5-HT Re-uptake; concentration 0.01 μg/ml", "value": 11.7, "unit": "%"}, {"measurement": "Amount of re-uptake", "setting": "5-HT Re-uptake; concentration 0.1 μg/ml", "value": "4117.3 ± 532.0", "unit": "dmp"}, {"measurement": "Inhibitory rate", "setting": "5-HT Re-uptake; concentration 0.1 μg/ml", "value": 17.0, "unit": "%"}, {"measurement": "Amount of re-uptake", "setting": "5-HT Re-uptake; concentration 1 μg/ml", "value": "3963.5 ± 459.4", "unit": "dmp"}, {"measurement": "Inhibitory rate", "setting": "5-HT Re-uptake; concentration 1 μg/ml", "value": 20.1, "unit": "%"}, {"measurement": "Amount of re-uptake", "setting": "5-HT Re-uptake; concentration 10 μg/ml", "value": "3696.4 ± 392.9", "unit": "dmp"}, {"measurement": "Inhibitory rate", "setting": "5-HT Re-uptake; concentration 10 μg/ml", "value": 25.5, "unit": "%"}, {"measurement": "Number of animals Remaining on the filter paper for 30 seconds", "setting": "[3]; 3.75 mg/kg × 10 i.g.", "value": 8}, {"measurement": "Number of animals Remaining on the filter paper for 30 seconds", "setting": "[3]; 7.5 mg/kg × 10 i.g.", "value": 7}]}]}
